Results published in paper PMC6254723, “Synthesis and Pharmacological Screening of Several Aroyl and Heteroaroyl Selenylacetic Acid Derivatives as Cytotoxic and Antiproliferative Agents” (Molecules, 2009).
Entries after “also recorded” stand apart in the source; their conditions may differ. Where two headings read alike, the source gives them in different places.

What was measured:
CCRF-CEM = test: MTT cytotoxicity assay (NCI) in CCRF-CEM; type: cell-based, human; conditions: 72 h; for TGI CCRF-CEM: dose that completely inhibits cell growth; for LD50 CCRF-CEM: dose that kills 50% of cells; for GI50: Homo sapiens, CCRF-CEM, read-out: GI50 CCRF-CEM
Experimental: (§1) In order to investigate the effect of the active compounds in more detail, we examined the activity on proliferation in other cancer cell lines. […] Tests were carried out in the Department of Health Science, Public University of Navarra against a panel of four human tumour cell lines: lung (HTB-54), colon (HT-29), leukaemia (CCRF-CEM) and breast adenocarcinoma (MCF-7). Cytotoxicity assays were performed based on the reactivity of MTT [3-(4,5-dimethylthiazol-2-yl)-2,5-diphenyl-tetrazolium bromide], as described by NCI [39]. […] Doxorubicin was used as a control. As guidance with regard to selectivity, all of the compounds were further examined for toxicity in a mammary gland cell culture derived from non-malignant cells (184B5). Drug concentrations ranged from 0.01 to 100 μM.
(§2) The cytotoxic effects of each substance were tested at five different doses between 0.01 and 100 μM. Each substance was initially dissolved in DMSO at a concentration of 0.1 M, and serial dilutions were prepared using culture medium. The plates with cells from the different lines, to which medium containing the substance under test were added, were incubated for 72 h at 37 °C in a humidified atmosphere containing 5% CO2. European Collection of Cell Cultures (ECACC) or American Type Culture Collection (ATCC) provided human tumour cell lines. Four cell lines were used: one human lymphocytic leukemia (CCRF-CEM) and three human solid tumours, one colon carcinoma (HT-29), one lung carcinoma (HTB-54) and one breast adenocarcinoma (MCF-7). CCRF-CEM, HT-29 and HTB-54 cells were grown in RPMI 1640 medium (Life Technologies, Carlsbad, CA, USA) supplemented with 10% foetal calf serum, 2 mM L-glutamine, 100 units/mL penicillin, 100 μg/mL streptomycin and 10 mM HEPES buffer (pH = 7.4). MCF-7 cells were grown in EMEM medium (Clonetics) supplemented with 10% foetal calf serum, 2 mM L-glutamine, 100 units/mL penicillin and 100 μg/mL streptomycin. 184B5 cells were grown Hams F-12/DMEM (50:50) supplemented as described by Li et al.. Cytotoxicity was then determined by the MTT method. […] Data were obtained from at least three independent experiments performed in quadruplicate.

MCF-7 [1] = test: MTT cytotoxicity assay (NCI) in MCF-7; type: cell-based, human; conditions: for TGI MCF-7: dose that completely inhibits cell growth; for LD50 MCF-7: dose that kills 50% of cells; for GI50: Homo sapiens, read-out: GI50 MCF-7
Experimental: as §1, §2

HTB-54 = test: MTT cytotoxicity assay (NCI) in HTB-54; type: cell-based, human; conditions: for TGI HTB-54: dose that completely inhibits cell growth; for LD50 HTB-54: dose that kills 50% of cells; for GI50: Homo sapiens, read-out: GI50 HTB-54
Experimental: as §1, §2

PC-3 cell line [2] = test: MTT cytotoxicity assay in PC-3; conditions: Homo sapiens
Experimental: The results are tabulated as IC50 values. All experiments were independently performed at least three times and the values were calculated after 72 hours exposure (drug concentrations of 2, 5, 7 and 10 μM).
PC-3 cells were seeded in 96-well plates (Millipore, Eschborn, Germany) at a density of 5 × 10^3 cells per well. The samples were incubated at 37 °C under 5% CO2 overnight prior to the addition of the compounds. Compounds were diluted in complete medium. After 3 days of incubation, 10 μL MTT solution (5 mg/mL in PBS) was added to the cells in each well and these were stored for an additional 4 h at 37 °C. […] The percentage of viable cells was calculated to obtain IC50-values.
PC-3 are human tumorigenic and metastatic prostate cancer cells and these were obtained from American Type Culture Collection (ATCC, Manassas, VA, USA) (passage 36).

HT-29 = test: MTT cytotoxicity assay (NCI) in HT-29; type: cell-based, human; conditions: for TGI HT-29: dose that completely inhibits cell growth; for LD50 HT-29: dose that kills 50% of cells; for GI50: Homo sapiens, read-out: GI50 HT-29
Experimental: as §1, §2

[3] = MTT toxicity assay in non-malignant mammary gland cells 184B5; type: cell-based; conditions: human
Experimental: as §1, §2

184B5 = test: as above; type: cell-based; conditions: for TGI 184B5 / LD50 184B5: 72 h; for LD50 184B5: dose that kills 50% of cells; for selectivity index (184B5/MCF-7 LD50 ratio): LD50 in 184B5 divided by LD50 in MCF-7
Experimental: as §1, §2

MCF-7 cells [4] = test: Cell cycle progression by flow cytometry; type: cell-based, human; conditions: MCF-7, 25 μM, 48 hours
Experimental: Cell cycle arrest is one of the targets of many anticancer drugs, including doxorubicin and camptothecin. In an effort to ascertain whether compound 1 could affect cell cycle progression in MCF-7 cells, these cells were treated with 25 μM of the corresponding compound for 48 hours and cell cycle progression was determined by flow cytometry analysis.
(§3) For breast adenocarcinoma MCF-7 cells, the apoptotic status and cell cycle analysis of the cells were determined using the Apo-Direct kit (BD Pharmingen), based on the TUNEL technique, under the conditions described by the manufacturer.

MCF-7 cells [5] = test: Apoptosis, Apo-Direct kit (TUNEL); type: cell-based, human; conditions: MCF-7, 25 μM, 48 hours
Experimental: The apoptotic status of the cells after 48 hours of treatment with 25 μM of the corresponding compound was determined using the Apo-Direct kit (BD Pharmingen) based on the TUNEL technique. Camptothecin was used as a positive control.
as §3

PC-3 cell line [6] = conditions: cited from earlier work
MCF-7 [7] = conditions: comparison drugs, MCF-7 by context; no reference given; cited from earlier work
[8] = PC-3, 72 h, read-out: IC50 PC-3 cell line
[9] = PC-3, read-out: IC50 (cytotoxic activity in PC-3 cell line)
[10] = listed as benzoylselenylacetic acid
[11] = dose that inhibits 50% of cell growth
[12] = MCF7, 72 h, dose that inhibits 50% of cell growth
[13] = HTB-54, 72 h, dose that inhibits 50% of cell growth
[14] = HT-29, 72 h, dose that inhibits 50% of cell growth

SMILES | TGI CCRF-CEM (CCRF-CEM) [µM] | LD50 CCRF-CEM (CCRF-CEM) [µM] | TGI MCF-7 (MCF-7 [1]; 72 h) [µM] | LD50 MCF-7 (MCF-7 [1]; 72 h) [µM] | TGI HTB-54 (HTB-54; 72 h) [µM] | LD50 HTB-54 (HTB-54; 72 h) [µM] | IC50 (PC-3 cell line [2]; [8]) [µM] | IC50 (PC-3 cell line [2]; [9]) [µM] | TGI HT-29 (HT-29; 72 h) [µM] | LD50 HT-29 (HT-29; 72 h) [µM] | LD50 184B5 (184B5; non-malignant cells) [µM] | GI50 (CCRF-CEM; [11]) [µM] | GI50 (MCF-7 [1]; [12]) [µM] | GI50 (HTB-54; [13]) [µM] | GI50 (HT-29; [14]) [µM] | GI50 at 72 h [3] [µM] | TGI 184B5 (184B5; human) [µM] | other results
O=C(O)C[Se]C(=O)c1ccccc1 [Compound 1, (Benzoylselenyl)acetic acid] | >100 | >100 | 3.69 | 58.01 | 42.47 | >100 | 6.8 | 6.8 | 55.98 | >100 | 76.73 | – | – | – | – | – | – | GI50 (CCRF-CEM): > 100 µM; GI50 (MCF-7 [1]; MCF7, 72 h): 0.09 µM; GI50 (HTB-54; HTB-54, 72 h): 0.58 µM; GI50 (HT-29; HT-29, 72 h): 7.39 µM; GI50 at 72 h ([3]; 72 h, non-malignant cells, dose that inhibits 50% of cell growth, read-out: GI50 184B5): 1.97 µM; TGI 184B5 (184B5; non-malignant cells, dose that completely inhibits cell growth): 22.50 µM; selectivity index (184B5/MCF-7 LD50 ratio) (184B5): 1.3; effect on cell cycle progression (MCF-7 cells [4]): did not induce any specific phase arrest of the cell cycle; effect on cell cycle progression (MCF-7 cells [4]; [10]): nor did it perturb the cell cycle; induction of apoptosis (MCF-7 cells [5]): induction of cell death was independent of the apoptotic process; also recorded: mechanism of action is independent of apoptosis; induction of apoptosis (MCF-7 cells [5]; [10]): did not provoke apoptosis
N#Cc1ccc(C(=O)[Se]CC(=O)O)cc1 [Compound 2, (4-cyanobenzoylselenyl)acetic acid] | >100 | >100 | 6.54 | 23.12 | 9.91 | >100 | 10 | 10 | 51.95 | >100 | 78.91 | > 100 | 2.64 | 1.9 | 8.95 | 2.29 | 20.14 | selectivity index (184B5/MCF-7 LD50 ratio) (184B5): 3.4
O=C(O)C[Se]C(=O)Cc1ccccc1 [Compound 11, Phenylacetoylselenylacetic acid] | >100 | >100 | 4.18 | 53.49 | >100 | >100 | 2.9 | 2.9 | 72.19 | >100 | 72.34 | > 100 | 0.006 | 11.1 | 16.2 | 1.05 | 9.64 | TGI MCF-7 (MCF-7 [1]; 72 h, listed as benzyl): 6.19 µM
COc1cc(OC)cc(C(=O)[Se]CC(=O)O)c1 [Compound 14, (3,5-dimethoxy-benzoylselenyl)acetic acid] | >100 | >100 | 6.19 | 52.65 | >100 | >100 | 4 | 4 | 47.42 | >100 | 62.55 | > 100 | 1.57 | 16.8 | 5.99 | 0.0009 | 8.21 | TGI MCF-7 (MCF-7 [1]; 72 h, listed as 3,5-dimethoxyphenyl): 4.18 µM
O=C(O)C[Se]C(=O)c1cccnc1Cl [Compound 21, (3-(2-chloro)-pyridoylselenyl)acetic acid] | >100 | >100 | 8.27 | 89.21 | >100 | >100 | 10 | 10 | 60.94 | >100 | 7.20 | > 100 | 0.003 | 11.8 | 7.53 | 0.05 | 1.89 | –
COc1cccc2c1C(=O)c1c(O)c3c(c(O)c1C2=O)C[C@@](O)(C(=O)CO)C[C@@H]3O[C@H]1C[C@H](N)[C@H](O)[C@H](C)O1 [Doxorub., doxorubicin, reference compound] | 0.071 | 0.29 | >100 | >100 | 1.25 | 3.45 | – | – | – | – | – | 0.033 | 0.88 | < 0.01 | – | – | – | –
COc1cc([C@@H]2c3cc4c(cc3[C@@H](O[C@@H]3O[C@@H]5CO[C@@H](C)O[C@H]5[C@H](O)[C@H]3O)[C@H]3COC(=O)[C@H]23)OCO4)cc(OC)c1O [Etoposide] | – | – | – | – | – | – | – | – | – | – | – | – | – | – | – | – | – | IC50 (PC-3 cell line [6]; etoposide control): 13.6 ± 2.2 µM
C[Se](=O)O [MSA, methylseleninic acid] | – | – | – | – | – | – | – | – | – | – | – | – | – | – | – | – | – | IC50 (PC-3 cell line [6]; methylseleninic acid control): 8.38 µM
CC(=O)O[C@H]1C(=O)[C@@]2(C)[C@H]([C@H](OC(=O)c3ccccc3)[C@]3(O)C[C@H](OC(=O)[C@H](O)[C@@H](NC(=O)c4ccccc4)c4ccccc4)C(C)=C1C3(C)C)[C@]1(OC(C)=O)CO[C@@H]1C[C@@H]2O [paclitaxel] | – | – | – | – | – | – | – | – | – | – | – | – | – | – | – | – | – | GI50 (MCF-7 [7]): 0.01 µM; TGI (MCF-7 [7]): 20 ± 1.9 µM
CCC1=C[C@@H]2CN(C1)Cc1c([nH]c3ccccc13)[C@@](C(=O)OC)(c1cc3c(cc1OC)N(C)[C@H]1[C@@](O)(C(=O)OC)[C@H](OC(C)=O)[C@]4(CC)C=CCN5CC[C@]31[C@@H]54)C2 [vinorelbine] | – | – | – | – | – | – | – | – | – | – | – | – | – | – | – | – | – | GI50 (MCF-7 [7]): 5 ± 1.3 µM; TGI (MCF-7 [7]): 100 ± 10.2 µM
